Measurements taken from US20250230188A1, “METAGENOME-GUIDED BIOSYNTHESIS AND COMPOUNDS AND METHODS OF USE THEREOF” (The Rockefeller University, priority 2022, published 2025).
In brackets after ≈: the same amount, converted by molar mass. Entries after “also recorded” stand apart in the source; their conditions may differ. Read-outs that look alike come from different tables or passages of the source. Values belong to the compound of their own block, whether it stands above or below them.

Assays:
E. cloacae 13047 = experiment: Syn-BNP MIC against ESKAPE pathogens: E. cloacae; assay type: cell-based, Enterobacter cloacae; details: E. cloacae 13047, Gram-negative
Description: (§1) All syn-BNPs, as well as the parent antibiotic albicidin were assayed for antimicrobial activity against the ESKAPE pathogens (Enterococcus faecium, Staphylococcus aureus, Klebsiella pneumoniae, Acinetobacter baumannii, Pseudomonas aeruginosa, and Enterobacter species), which are a collection of bacteria most commonly associated with antibacterial resistant nosocomial infections.

S. aureus SH1000 = experiment: Syn-BNP MIC against ESKAPE pathogens: S. aureus; assay type: cell-based, Staphylococcus aureus; details: for MIC: S. aureus SH1000, Gram-positive
Description: as §1, with “infections. […]” for “infections.”

K. pneumoniae 10031 = experiment: Syn-BNP MIC against ESKAPE pathogens: K. pneumoniae; assay type: cell-based, Klebsiella pneumoniae; details: for MIC: K. pneumoniae 10031, Gram-negative
Description: as §1

E. coli-BL21 (pET28c) = assay type: cell-based, Escherichia coli; details: empty vector
Excerpt: (§2) As circumventing common antibiotic resistance mechanisms was likely to play a key role in the natural selection of antibiotic congeners, the present studies investigated whether some of the congeners evolved to evade AlbD-mediated cleavage. To determine the susceptibility of the herein described BGC-inspired analogs to AlbD encoded resistance, the MIC of each syn-BNP against E. coli engineered to express AlbD was compared to that of E. coli containing an empty expression vector.

[1] = tested on: E. coli-BL21 (pET28c-AlbD); assay type: cell-based, Escherichia coli; details: for Fold increase in MIC: AlbD expressing strain versus empty vector strain; for MIC: E. coli-BL21 (pET28c-AlbD); for susceptibility to AlbD encoded resistance: E. coli expressing AlbD versus empty vector
Excerpt: as §2

E. coli 25922 = experiment: Syn-BNP MIC against E. coli; assay type: cell-based, Escherichia coli; details: E. coli 25922, Gram-negative
E. faecium com15 = experiment: Syn-BNP MIC against ESKAPE pathogens: E. faecium; assay type: cell-based, Enterococcus faecium; details: for MIC: E. faecium com15, Gram-positive
Description: as §1, with “infections. […]” for “infections.”

A. baumannii = experiment: Syn-BNP MIC against ESKAPE pathogens: A. baumannii; assay type: cell-based, Acinetobacter baumannii; details: for MIC: Gram-negative
Description: as §1

P. aeruginosa = experiment: Syn-BNP MIC against ESKAPE pathogens: P. aeruginosa; assay type: cell-based, Pseudomonas aeruginosa; details: Gram-negative
Description: as §1

DNA gyrase = DNA gyrase (Escherichia coli, UniProt P0AES4+P0AES6); details: FIG. 9
Excerpt: Further studies are focused on an investigation of other mutations via a clinical introduction of this class of antibiotics.

SMILES: COc1c(NC(=O)c2ccc(NC(=O)c3ccc(NC(=O)[C@H](CC#N)NC(=O)c4ccc(NC(=O)/C(C)=C/c5ccc(O)cc5)cc4)cc3)c(OC)c2O)ccc(C(=O)O)c1O [Albicidin, reference compound]
MIC (E. cloacae 13047): 8 µg/mL (≈ 9.49 µM)
MIC (S. aureus SH1000): 0.5 µg/mL (≈ 0.593 µM)
MIC (K. pneumoniae 10031): >8 µg/mL
MIC (E. coli-BL21 (pET28c)): 0.0019 µg/mL (≈ 0.00225 µM)
Fold increase in MIC [1]: 131 fold
MIC [1]: 0.25 µg/mL (≈ 0.297 µM)
MIC (E. coli 25922): 0.015 µg/mL (≈ 0.0178 µM)
MIC (E. faecium com15): 2 µg/mL (≈ 2.37 µM)
MIC (A. baumannii): 0.125 µg/mL (≈ 0.148 µM)
MIC (P. aeruginosa): 1 µg/mL (≈ 1.19 µM)

MIC (S. aureus SH1000; Staphylococcus aureus, read-out: MIC): 0.5 µg/mL (≈ 1.51 µM)
MIC (E. coli 25922; Escherichia coli, read-out: MIC): 0.0075 µg/mL (≈ 0.0226 µM)
MIC (E. faecium com15; Enterococcus faecium, read-out: MIC): 0.5 µg/mL (≈ 1.51 µM)
SMILES: O=C(O)c1cn(C2CC2)c2cc(N3CCNCC3)c(F)cc2c1=O [Ciprofloxacin, reference compound]

SMILES: COc1c(NC(=O)c2ccc(NC(=O)[C@H](CC#N)NC(=O)c3ccc(NC(=O)/C(C)=C/c4ccc(O)cc4)cc3)c(OC)c2O)ccc(C(=O)Nc2ccc(C(=O)O)cc2)c1O [PABA34]
MIC (E. cloacae 13047): 2 µg/mL (≈ 2.37 µM)
MIC (S. aureus SH1000): >8 µg/mL
MIC (K. pneumoniae 10031): >8 µg/mL
MIC (E. coli-BL21 (pET28c)): 0.0075 µg/mL (≈ 0.0089 µM)
Fold increase in MIC [1]: 4 fold
susceptibility to AlbD encoded resistance [1]: resistant to proteolytic cleavage by AlbD; also recorded: not susceptible to AlbD encoded resistance
MIC [1]: 0.03 µg/mL (≈ 0.0356 µM)
affinity for DNA gyrase (DNA gyrase): retained a high affinity for DNA gyrase
MIC (E. faecium com15): >8 µg/mL
MIC (A. baumannii): 2 µg/mL (≈ 2.37 µM)
MIC (P. aeruginosa): 2 µg/mL (≈ 2.37 µM)

SMILES: CO[C@@H](C(N)=O)[C@H](NC(=O)c1ccc(NC(=O)[C@@H](N)Cc2ccccc2)cc1)C(=O)Nc1ccc(C(=O)Nc2ccc(C(=O)Nc3ccc(C(=O)O)c(O)c3OC(C)C)c(O)c2OC(C)C)cc1 [PABA48]
MIC (E. cloacae 13047): >8 µg/mL
fold more potent than albicidin (S. aureus SH1000; S. aureus): 2 fold
MIC (S. aureus SH1000): 0.25 µg/mL (≈ 0.268 µM)
fold more potent than albicidin (K. pneumoniae 10031; K. pneumoniae): > 64 fold
MIC (K. pneumoniae 10031): 0.125 µg/mL (≈ 0.134 µM)
MIC (E. coli-BL21 (pET28c)): 0.06 µg/mL (≈ 0.0642 µM)
Fold increase in MIC [1]: >133 fold
MIC [1]: > 8 µg/mL
MIC (E. coli 25922): 0.125 µg/mL (≈ 0.134 µM)
fold more potent than albicidin (E. faecium com15; E. faecium): 16 fold
MIC (E. faecium com15): 0.125 µg/mL (≈ 0.134 µM)
MIC compared with albicidin (A. baumannii): same MIC as albicidin
MIC (A. baumannii): 0.125 µg/mL (≈ 0.134 µM)
MIC (P. aeruginosa): >8 µg/mL

SMILES: CO[C@@H](C(N)=O)[C@H](NC(=O)c1ccc(NC(=O)[C@@H](N)Cc2ccc(O)cc2)cc1)C(=O)Nc1ccc(C(=O)Nc2ccc(C(=O)Nc3ccc(C(=O)O)cc3)c(O)c2OC(C)C)cc1 [PABA57]
MIC (E. cloacae 13047): >8 µg/mL
MIC (S. aureus SH1000): >8 µg/mL
MIC (K. pneumoniae 10031): 1 µg/mL (≈ 1.14 µM)
MIC (E. coli-BL21 (pET28c)): 0.5 µg/mL (≈ 0.571 µM)
Fold increase in MIC [1]: >128 fold
MIC [1]: > 64 µg/mL
MIC (E. coli 25922): 2 µg/mL (≈ 2.28 µM)
MIC (E. faecium com15): >8 µg/mL
MIC (A. baumannii): >8 µg/mL
MIC (P. aeruginosa): >8 µg/mL

SMILES: CO[C@@H](C(N)=O)[C@H](NC(=O)c1ccc(NC(=O)[C@@H](N)Cc2ccc(O)cc2)cc1)C(=O)Nc1ccc(C(=O)Nc2ccc(C(=O)Nc3ccc(C(=O)O)c(O)c3OC(C)C)c(O)c2OC(C)C)cc1 [PABA70]
MIC (E. cloacae 13047): >8 µg/mL
MIC (S. aureus SH1000): 1 µg/mL (≈ 1.05 µM)
MIC (K. pneumoniae 10031): 1 µg/mL (≈ 1.05 µM)
MIC (E. coli-BL21 (pET28c)): 0.5 µg/mL (≈ 0.526 µM)
Fold increase in MIC [1]: >128 fold
MIC [1]: > 64 µg/mL
MIC (E. coli 25922): 2 µg/mL (≈ 2.11 µM)
MIC (E. faecium com15): 1 µg/mL (≈ 1.05 µM)
MIC (A. baumannii): 4 µg/mL (≈ 4.21 µM)
MIC (P. aeruginosa): >8 µg/mL

SMILES: COc1c(NC(=O)/C(C)=C/c2ccc(O)cc2)ccc(C(=O)N[C@@H](CC#N)C(=O)Nc2ccc(C(=O)Nc3ccc(C(=O)Nc4ccc(C(=O)O)cc4)c(O)c3OC)c(O)c2OC)c1O [PABA95-2]
MIC (E. coli-BL21 (pET28c)): 0.06 µg/mL (≈ 0.0675 µM)
Fold increase in MIC [1]: 8 fold
susceptibility to AlbD encoded resistance [1]: not susceptible to AlbD encoded resistance
MIC [1]: 0.5 µg/mL (≈ 0.563 µM)

SMILES: COc1c(NC(=O)/C(C)=C/c2ccc(O)cc2)ccc(C(=O)N[C@@H](CC#N)C(=O)Nc2ccc(C(=O)Nc3ccc(C(=O)Nc4ccc(C(=O)O)cc4)c(O)c3OC)cc2)c1O [PABA95]
MIC (E. cloacae 13047): 8 µg/mL (≈ 9.49 µM)
MIC (S. aureus SH1000): 4 µg/mL (≈ 4.75 µM)
MIC (K. pneumoniae 10031): >8 µg/mL
MIC (E. coli-BL21 (pET28c)): 0.015 µg/mL (≈ 0.0178 µM)
Fold increase in MIC [1]: 133 fold
MIC [1]: 2 µg/mL (≈ 2.37 µM)
MIC (E. coli 25922): 0.25 µg/mL (≈ 0.297 µM)
MIC (E. faecium com15): 8 µg/mL (≈ 9.49 µM)
MIC (A. baumannii): 0.5 µg/mL (≈ 0.593 µM)
MIC (P. aeruginosa): 8 µg/mL (≈ 9.49 µM)
